Data from US7511041B2, “Fused azole-pyrimidine derivatives” (Bayer Pharmaceuticals Corporation, priority 2002, dated 2009).
Structures can show the parent of a compound that is named as a salt.

SMILES	melting point
CC(=O)Nc1ccc(/C(O)=C/C2=Nc3c(C)cccc3C3=NCCN23)cn1.Cl [Example 1-78]	> 285 °C
Cl.O=C(NC1=Nc2ccccc2C2=NCCN12)c1sccc1Cl [Example 2-181]	298 °C (dec.)
COc1cc2c(c(OC)c1C)N=C(/C=C(\O)c1cccnc1)N1CCN=C21.Cl [Example 1-63]	285 °C
COc1cc2c(cc1OC)C1=NCCN1C(/C=C(\O)c1ccc3[nH]cnc3c1)=N2 [Example 1-56]	212 to 215 °C
Cl.O=C(NC1=Nc2cc(Cl)ccc2C2=NCCN12)c1ccc2[nH]cnc2c1 [Example 2-40]	270 °C
CC(=O)Nc1ccc(/C(O)=C/C2=Nc3cc(N4CCOCC4)ccc3C3=NCCN23)cn1.Cl [Example 1-97]	246 °C
Cl.O/C(=C\C1=Nc2c(cccc2C(F)(F)F)C2=NCCN12)c1cccnc1 [Example 1-81]	> 290 °C
Cl.O=C(NC1=Nc2ccccc2C2=NCCN12)c1c[nH]cn1 [Example 2-194]	309 to 310 °C
Cl.O/C(=C\C1=Nc2c(OCCN3CCOCC3)cccc2C2=NCCN12)c1cccnc1 [Example 1-85]	261 to 262 °C
Cl.O=C(NC1=Nc2ccccc2C2=NCCN12)c1ccc(-n2cccn2)cc1 [Example 2-271]	319 °C (dec.)
O/C(=C\C1=Nc2ccc(Cl)cc2C2=NCCN12)c1cccnc1 [Example 1-130]	> 330 °C
C=Cc1ccc2c(c1)C1=NCCN1C(NC(=O)c1cccnc1)=N2.Cl [Example 2-96]	275 to 277 °C
Cl.O/C(=C\C1=Nc2c(CN3CCOCC3)cccc2C2=NCCN12)c1cccnc1 [Example 1-207]	259 °C (dec.)
COc1cccc2c1N=C(NC(=O)c1cccnc1)N1CCN=C21.Cl [Example 2-115]	237 °C (dec.)
Cc1cc(Br)c2c(c1)C1=NCCN1C(/C=C(\O)c1ccc3[nH]cnc3c1)=N2.Cl [Example 1-48]	> 285 °C
COc1cccc2c1N=C(/C=C(\O)c1cccnc1)N1CCN=C21.Cl [Example 1-69]	285 °C
CC(=O)Nc1ccc(C(=O)NC2=Nc3cc(N4CCOCC4)ccc3C3=NCCN23)cc1 [Example 2-15]	227 °C
Cc1cccc2c1N=C(/C=C(\O)c1cccnc1)N1CCN=C21.Cl [Example 1-76]	> 290 °C
CC(=O)Nc1ccc(C(=O)NC2=Nc3ccccc3C3=NCCN23)cn1.Cl [Example 2-152]	312 °C (dec.)
COc1c(OCC(N)=O)ccc2c1N=C(/C=C(\O)c1cccnc1)N1CCN=C21.Cl [Example 1-24]	235 °C (dec.)
CS(=O)(=O)c1ccc(C(=O)NC2=Nc3ccccc3C3=NCCN23)cc1.Cl [Example 2-246]	320 °C (dec.)
COc1c(OCc2nn[nH]n2)ccc2c1N=C(/C=C(\O)c1cccnc1)N1CCN=C21.Cl [Example 1-197]	217 to 218 °C
O=C(NC1=Nc2ccccc2C2=NCCN12)c1ccc(Cl)cc1.O=C(O)C(F)(F)F [Example 2-230]	243 to 245 °C
O=C(Nc1nc2ccccc2c2nccn12)c1cccnc1 (as salt: hydrochloride) [Example 4-2, N-Imidazo[1,2-c]quinazolin-5-ylnicotinamide hydrochloride]	228 °C (dec.)
Cl.O/C(=C\C1=Nc2ccccc2C2=NCCN12)c1csc2ccccc12 [Example 1-181]	> 300 °C
Cc1ccc(C(=O)NC2=Nc3cc(N4CCOCC4)ccc3C3=NCCN23)cn1.Cl [Example 2-14]	267 °C (dec.)
Cl.O/C(=C\C1=Nc2ccccc2C2=NCCN12)c1cccnc1 [Example 1-135]	260 °C (dec.)
COc1cncc(C(=O)NC2=Nc3ccccc3C3=NCCN23)c1.Cl [Example 2-141]	272 °C (dec.)
Cl.O/C(=C\C1=Nc2ccccc2C2=NCCN12)c1ccncc1 [Example 1-176]	235 °C (dec.)
Cc1cccc2c1N=C(NC(=O)c1cccnc1)N1CCN=C21.Cl [Example 2-108]	> 290 °C
